Source: US4764521A, “Leukotriene antagonists and a method of use there as” (Eli Lilly and Company, priority 1986, dated 1988)
Values belong to the compound of their own block, whether it stands above or below them.

Columns and labels:
[1] = test system: LTD4 evoked ileal contractions (guinea pig ileum); experiment: Inhibition of LTD4 evoked contractions in isolated ileum (single submaximal LTD4 response, five minute drug exposure); assay type: cell-based, Male, Hartley guinea pigs; details: Cavia porcellus, read-out: Percent inhibition of LTD4 evoked ileal contractions; for inhibition at 3 µM: Compound concentration 3 × 10^-6 M; for inhibition at 0.1 µM: Compound concentration 1 × 10^-7 M; for inhibition at 0.3 µM: Compound concentration 3 × 10^-7 M; for inhibition at 1 µM: Compound concentration 1 × 10^-6 M
Procedure: (§1) A section of terminal ileum was removed, the lumen cleaned, and the tissue divided into 2.5 cm. segments. The ilea were mounted in 10 ml. tissue baths containing Krebs-bicarbonate solution of the following composition in mmoles/ liter: KCl, 4.6; CaCl2 ·2H2 O, 1.2; KH2 PO4, 1.2; MgSO4 ·7H2 O, 1.2; NaCl, 118.2; NaHCO3, 24.8; and dextrose, 10.0. The bath fluid was maintained at 37° C. and aerated with 95 percent oxygen and 5 percent CO2. In addition, the buffer contained 1×10^- 6M atropine to reduce ileal spontaneous activity. Isometric measurements were made with a Grass FTO3C force-displacement transducer and recorded on a Grass polygraph as change in grams of force. A passive force of 0.5 g. was applied to the tissues. After an appropriate equilibration period, single submaximal control responses to pure LTD4 were obtained. Following a five minute exposure of the ileum to an experimental drug, the control concentration of LTD4 was added to the tissue bath. The response of the ileum to LTD4 in the presence of the drug was compared to the response in the absence of the drug. For some of the drugs in this series a more detailed analysis of LTD4 antagonism was made. In these experiments, cumulative concentration-response curves were obtained to LTD4 in guinea pig ileum and trachea. This was followed by a 30 minute incubation with various concentrations of the experimental drug. The concentration response curve to LTD4 was then repeated in the presence of the antagonist. Only one concentration of antagonist was used on a single tissue. KB values were calculated by the method of Furchgott [Ann. N.Y. Acad. Sci., 139, 553 (1967)]using the following equation. [formula]

[2] = target: T1, LTD4 (guinea pig ileum and trachea) (Cavia porcellus, UniProt Q2NNR5); experiment: LTD4 antagonism, cumulative concentration-response curves to LTD4 (KB / pA2, Schild); assay type: cell-based; details: negative log of KB, 30 minute incubation
T1 construct: A section of terminal ileum was removed, the lumen cleaned, and the tissue divided into 2.5 cm. segments; from tissue; host or cells: isolated ileum and trachea of guinea pig (ileum: male Hartley, terminal ileum)
T1 sequence (Q2NNR5 1-340): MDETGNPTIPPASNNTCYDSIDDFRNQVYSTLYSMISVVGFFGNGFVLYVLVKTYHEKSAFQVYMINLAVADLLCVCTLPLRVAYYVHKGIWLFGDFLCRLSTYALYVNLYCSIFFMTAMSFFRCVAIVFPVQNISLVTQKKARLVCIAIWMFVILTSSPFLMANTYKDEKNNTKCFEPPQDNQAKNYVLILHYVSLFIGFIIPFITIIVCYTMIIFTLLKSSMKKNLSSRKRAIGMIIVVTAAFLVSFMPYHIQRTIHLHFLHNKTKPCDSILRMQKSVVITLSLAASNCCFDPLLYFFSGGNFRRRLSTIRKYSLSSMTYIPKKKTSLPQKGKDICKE
Procedure: as §1, with “Male, Hartley guinea pigs weighing 200-450 grams were killed by decapitation. A section” for “A section”
Dose ratio refers to the concentration of agonist required to elicit 50 percent of the maximal response (ED50) in the presence of the antagonist divided by the ED50 in the absence of the antagonist. Calculations were performed with the aid of a computer and a digital plotter.

SMILES: CCCc1c(OCCCCCCC(=O)O)ccc(Cl)c1Cl [Example 12, 7-(2-Propyl-3,4-dichlorophenoxy)heptanoic acid]
inhibition at 3 µM [1]: 31%

SMILES: CCCCCCCCCCCCc1c(OCCCCCc2nnn[nH]2)ccc(Cl)c1Cl [Example 7, 5-[5-(2-Dodecyl-3,4-dichlorophenoxy)pentyl]tetrazole]
inhibition at 3 µM [1]: 16%

SMILES: CCCc1c(OCCCSc2nn[nH]n2)ccc(Cl)c1Cl [Example 8, 5-[3-(2-Propyl1-3,4-dichlorophenoxy)propanethio]-tetrazole]
inhibition at 0.1 µM [1]: 59%
inhibition at 0.3 µM [1]: 79%

Kb ([2]; *estimated): 105 nM
SMILES: CCCc1c(OCCCCc2nnn[nH]2)ccc(C(C)=O)c1Cl [Example 5, 5-[4-(2-Propyl-3-chloro-4-acetylphenoxy)butyl]-tetrazole]
inhibition at 0.1 µM [1]: 49%
inhibition at 0.3 µM [1]: 73%

Kb ([2]; *estimated): 3160 nM
SMILES: CCCc1c(OCCCCc2nnn[nH]2)ccc(Cl)c1O [Example 11, 5-[4-(2-Propyl-3-hydroxy-4-chlorophenoxy)butyl]-tetrazole]
inhibition at 3 µM [1]: 20%

SMILES: CCCCCc1c(OCCCCCC(=O)O)ccc(Cl)c1Cl [Example 9, 6-(2-Pentyl-3,4-dichlorophenoxy)hexanoic acid]
inhibition at 1 µM [1]: 21%
inhibition at 3 µM [1]: 57%

SMILES: CCCc1c(OCCCCCC(=O)O)ccc(Cl)c1Cl [Example 1, 6-(2-Propyl-3,4-dichlorophenoxy)hexanoic acid]
inhibition at 1 µM [1]: 51%
inhibition at 3 µM [1]: 78%

Kb ([2]; *estimated): 251 nM
SMILES: CCCc1c(OCCCCCc2nnn[nH]2)ccc(Cl)c1Cl [Example 3, 5-[5-(2-Propyl-3,4-dichlorophenoxy)pentyl]-tetrazole]
inhibition at 1 µM [1]: 75%
inhibition at 3 µM [1]: 92%
inhibition at 0.3 µM [1]: 51%

pA2 ([2]; *estimated): 7.0
SMILES: CCCc1c(OCCCCCCc2nn[nH]n2)ccc(Cl)c1Cl [Example 4, 5-[6-(2-Propyl-3,4-dichlorophenoxy)hexyl]-tetrazole]
inhibition at 1 µM [1]: 84%
inhibition at 3 µM [1]: 96%

SMILES: CCCCCCCCc1c(OCCCCCCc2nnn[nH]2)ccc(Cl)c1Cl [Example 6, 5-[6-(2-Octyl-3,4-dichlorophenoxy)hexyl]-tetrazole]
inhibition at 1 µM [1]: 53%
inhibition at 3 µM [1]: 59%

SMILES: O=C(O)CCCCCOc1ccc(Cl)c(Cl)c1CCO [Example 10, 6-[2-(2-Hydroxyethyl)-3,4-dichlorophenoxy]hexanoic acid]
inhibition at 3 µM [1]: 22%

Kb [2]: 100 nM
SMILES: CCCc1c(OCCCCc2nnn[nH]2)ccc(Cl)c1Cl [Example 2, 5-[4-(2-Propyl-3,4-dichlorophenoxy)butyl]-tetrazole]
inhibition at 1 µM [1]: 94%
inhibition at 0.1 µM [1]: 56%
inhibition at 0.3 µM [1]: 70%
